Data set [1] has as its target human CYP3A4 enzyme (Homo sapiens (Human), UniProt P08684). Kind of data set: CYP3A4 enzyme inhibitory activity (Vivid CYP3A4 Green screening kit).
Method: The inhibitory activity of compounds on human CYP3A4 enzyme was detected using a VIVID™ CYP3A4 GREEN SCRNING KIT reagent kit. The Vivid™ CYP450 screening kit includes a Vivid™ substrate, Vivid™ fluorescence standard, reaction buffer, Vivid™ regeneration system, NADP+ and CYP450 BACULOSOMES™ Plus reagent. Operations were performed following the instructions, and a blank control group was set up without adding any compounds.
The IC50 value of the compounds inhibiting human CYP3A4 enzyme was calculated using Graphpad Prism 7.00 software through the formula Y=100/(1+10^((Log IC50−X)*HillSlope)).
Data set [2] deals with human platelets. Nature of the data set: Platelet viability test (CTG). The format is cell-based. Conditions: CTG after 24 h. The protocol: After 10 mL of platelet-rich plasma was added to 30 mL of ACD-A solution and uniformly mixed, centrifugation was performed at 1200 g, and the supernatant was discarded; 10 mL of ACD-A solution was added, resuspended, uniformly mixed, and centrifuged at 1200 g for 10 min, and the supernatant was discarded. 5 mL of HEPES-Tyrode's buffer containing 1 μM PGE1 and 0.2 U/mL apyrase was added, slightly inverted, and then centrifuged at 800 g for 5 min, and the supernatant was discarded. 10 mL of HEPES-Tyrode's buffer containing 1 μM PGE1 and 0.2 U/mL apyrase was added, resuspended, and centrifuged at 1000 g for 5 min, and the supernatant was discarded. 2 mL of HEPES-Tyrode's buffer containing 1 μM PGE1+10% FBS-resuspended platelets was added, 200 μL was taken into a centrifuge tube and diluted to 2 mL. Then it was diluted to 1, 0.8, 0.6, 0.4, 0.2, 0.1, 0.08, 0.06, 0.04, 0.02, 0.01 times, the volume was complemented to 100 μL, and 50 μL of CTG reagent was added to detect cell viability. The maximum valid dilution with a fluorescence value not exceeding […] was selected for dilution, 90 μL/well was connected to a 96-well cell plate for chemiluminescence detection. A compound was prepared with HEPES-Tyrode's buffer containing 1 μM of PGE1+10% FBS, and added to the cells, which was gently beaten evenly and detected for cell viability by adding 50 μL CTG after 24 h.

Data set [3] concerns the target BCL-XL (Homo sapiens (Human), UniProt Q07817). Kind of data set: BCL-XL enzyme molecular level activity test (HTRF, binding to BIM peptide). The following applies: binding of BCL-XL to BIM peptide, read-out: BCL-XL inhibitory activity (IC50). A digest of the protocol:
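HTRF binding assay: His-tagged recombinant BCL-XL with biotin-BIM peptide and compound (2% DMSO), 1 h. Anti-His and streptavidin-XL665 detection reagents added, 4 h at room temperature. Excitation 320 nm; 665/615 nm ratio reflects binding, with no-protein background and no-compound full-binding controls.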
For orientation: TR-FRET usually uses a lanthanide donor and a delayed reading to cut background.

In data set [4] the target is BCL2 (D103Y) (Homo sapiens (Human), UniProt P10415, D103Y). Nature of the data set: Molecular level activity test of BCL2 (D103Y) (HTRF, binding to Bim peptide). Conditions: read-out: BCL-2 (D103Y) (nM) (inhibitory activity, IC50). A digest of the protocol:
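His-tagged recombinant protein mixed with biotinylated BIM peptide and compound (2% DMSO), reacted 1 h. Anti-His and streptavidin-XL665 detection reagents then added and incubated 4 h at room temperature before HTRF read-out of binding inhibition.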

Data set [5] deals with BCL2 (G101V) (Homo sapiens (Human), UniProt P10415, G101V). Nature of the data set: Molecular level activity test of anti-apoptotic protein BCL2 (G101V) (HTRF, binding to Bim peptide). The following applies: inhibition of BCL2 (G101V) binding to Bim peptide, read-out: BCL-2 (G101V). A digest of the protocol:
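His-tagged recombinant BCL2 (G101V) incubated 1 h with biotin-BIM peptide and compound (2% DMSO), then anti-His and streptavidin-XL665 detection reagents added for 4 h at room temperature. HTRF signal reflects compound effect on BCL2–BIM binding.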

The test system of data set [6] is RS4; 11 cells. Nature of the data set: Tumor proliferation inhibitory activity test (MTS) on RS4; 11. Conditions: Homo sapiens, RS4-11, 72 h, 3 days incubation. The format is cell-based. The essentials:
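RS4;11 cells were exposed to serially diluted compound (0.2% DMSO control) for 3 days at 37 °C/5% CO2, followed by MTS for 3–4 h. Read-out was OD490−OD690, and inhibition was calculated relative to the DMSO and blank wells.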

Data set [7] deals with BCL2 (Homo sapiens (Human), UniProt P10415). Kind of data set: Molecular level activity test of anti-apoptotic protein BCL2 (HTRF, binding to Bim peptide). The following applies: HTRF, binding of BCL2 to Bim peptide; read-out: BCL2 nM (inhibitory activity, IC50). The essentials: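 Signal comes from proximity of anti-His-labelled BCL2 and streptavidin-XL665-bound biotin-BIM peptide. Test compounds, added in 2% DMSO, were preincubated with protein and peptide for one hour; detection reagents then incubated four hours at room temperature before reading.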

[8] abbreviates: read-out: CYP3A4 (IC50), Vivid CYP3A4 Green screening kit.

Where two headings read alike, the source gives them in different places. A value given as a limit tells only on which side of the number the result lay.

Chain of human CYP3A4 enzyme (P08684 whole entry): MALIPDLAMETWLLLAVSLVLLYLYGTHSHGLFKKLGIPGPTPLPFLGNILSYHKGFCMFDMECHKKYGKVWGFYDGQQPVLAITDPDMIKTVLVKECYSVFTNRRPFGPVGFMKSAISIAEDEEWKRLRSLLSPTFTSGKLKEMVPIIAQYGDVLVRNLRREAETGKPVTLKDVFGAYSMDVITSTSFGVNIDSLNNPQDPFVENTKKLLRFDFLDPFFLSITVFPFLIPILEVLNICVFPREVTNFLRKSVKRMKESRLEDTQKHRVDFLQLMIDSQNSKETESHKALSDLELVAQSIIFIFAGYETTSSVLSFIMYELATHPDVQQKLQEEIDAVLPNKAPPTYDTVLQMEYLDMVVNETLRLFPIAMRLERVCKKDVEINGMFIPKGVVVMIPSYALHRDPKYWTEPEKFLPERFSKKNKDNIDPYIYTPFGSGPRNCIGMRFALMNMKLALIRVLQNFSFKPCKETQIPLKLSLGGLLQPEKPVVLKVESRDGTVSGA
Chain of BCL-XL (Q07817 whole entry): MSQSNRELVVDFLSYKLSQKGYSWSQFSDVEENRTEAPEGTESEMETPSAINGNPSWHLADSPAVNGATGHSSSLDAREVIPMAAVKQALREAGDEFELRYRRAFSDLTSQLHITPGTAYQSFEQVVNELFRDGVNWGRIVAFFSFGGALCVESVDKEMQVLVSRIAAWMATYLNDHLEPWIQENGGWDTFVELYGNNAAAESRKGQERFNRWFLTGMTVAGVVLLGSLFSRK

As to `CC(C)c1ccccc1[C@@H]1CN(Cc2ccc(F)c(F)c2)CCN1C1CC2(CCN(c3cc(Oc4cnc5[nH]ccc5c4)c(C(=O)NS(=O)(=O)c4ccc(NCC5(F)CCOCC5)c([N+](=O)[O-])c4)cc3F)CC2)C1` [compound 190, (R)-2-((1H-pyrrolo[2,3-b]pyrid-5-yl)oxy)-4-(2-(4-(3,4-difluorobenzyl)-2-(2-isopropylphenyl)piperazin-1-yl)-7-azaspiro[3.5]non-7-yl)-5-fluoro-N-((4-(((4-fluorotetrahydro-2H-pyran-4-yl)methyl)amino)-3-nitrophenyl)sulfonyl)benzamide], the IC50 in data set [1] is greater than 20000 nM; in data set [2] it was greater than 5000 nM; in data set [3] (values in nM), greater than 500 nM; in data set [4], less than 10 nM; in data set [5], less than 10 nM; in data set [6], less than 0.5 nM.
As to `COc1ccc(CN2CCN(C3CC4(CCN(c5cc(Oc6cnc7[nH]ccc7c6)c(C(=O)NS(=O)(=O)c6ccc(NCC7CCOCC7)c([N+](=O)[O-])c6)cc5F)CC4)C3)[C@H](c3ccccc3C(C)C)C2)cc1` [compound 239, (R)-2-((1H-pyrrolo[2,3-b]pyrid-5-yl)oxy)-5-fluoro-4-(2-(2-(2-isopropylphenyl)-4-(4-methoxybenzyl)piperazin-1-yl)-7-azaspiro[3.5]non-7-yl)-N-((3-nitro-4-(((tetrahydro-2H-pyran-4-yl)methyl)amino)phenyl)sulfonyl)benzamide], the IC50 is greater than 20000 nM in data set [1] (setting [8]); less than 10 nM in data set [7]; greater than 5000 nM in data set [2]; greater than 500 nM in data set [3] (values in nM); less than 10 nM in data set [5]; less than 0.5 nM in data set [6].
As to `COc1ccc(CN2CCN(C3CC4(CCN(c5cc(Oc6cnc7[nH]ccc7c6)c(C(=O)NS(=O)(=O)c6ccc(NC[C@H]7COCCO7)c([N+](=O)[O-])c6)cc5F)CC4)C3)[C@H](c3ccccc3C(C)C)C2)cc1` [compound 241, N-((4-((((S)-1,4-dioxan-2-yl)methyl)amino)-3-nitrophenyl)sulfonyl)-2-((1H-pyrrolo[2,3-b]pyrid-5-yl)oxy)-5-fluoro-4-(2-((R)-2-(2-isopropylphenyl)-4-(4-methoxybenzyl)piperazin-1-yl)-7-azaspiro[3.5]non-7-yl)benzamide], the IC50 in data set [7] was less than 10 nM; in data set [2], greater than 5000 nM; in data set [3] (values in nM), greater than 500 nM; in data set [4], less than 10 nM; in data set [5], less than 10 nM; in data set [6], less than 0.5 nM.
In the case of `COc1cc(CN2CCN(C3CC4(CCN(c5cc(Oc6cnc7[nH]ccc7c6)c(C(=O)NS(=O)(=O)c6ccc(NCC7(F)CCOCC7)c([N+](=O)[O-])c6)cc5F)CC4)C3)[C@H](c3ccccc3C(C)C)C2)ccc1CN(C)C` [compound 247, (R)-2-((1H-pyrrolo[2,3-b]pyrid-5-yl)oxy)-4-(2-(4-(4-((dimethylamino)methyl)-3-methoxybenzyl)-2-(2-isopropylphenyl)piperazin-1-yl)-7-azaspiro[3.5]non-7-yl)-5-fluoro-N-((4-(((4-fluorotetrahydro-2H-pyran-4-yl)methyl)amino)-3-nitrophenyl)sulfonyl)benzamide], the IC50 in data set [7] was less than 10 nM; in data set [2], greater than 5000 nM; in data set [3] (values in nM) it was greater than 500 nM; in data set [4], less than 10 nM; in data set [5] it was less than 10 nM; in data set [6], 0.5 to 1 nM.
As to `COc1ccc(CN2CCN(C3CC4(CCN(c5cc(Oc6cnc7[nH]cc(F)c7c6)c(C(=O)NS(=O)(=O)c6ccc(NCC7(F)CCOCC7)c([N+](=O)[O-])c6)cc5F)CC4)C3)[C@H](c3ccccc3C(C)C)C2)cc1` [compound 252, (R)-5-fluoro-2-((3-fluoro-1H-pyrrolo[2,3-b]pyrid-5-yl)oxy)-N-((4-(((4-fluorotetrahydro-2H-pyran-4-yl)methyl)amino)-3-nitrophenyl)sulfonyl)-4-(2-(2-(2-isopropylphenyl)-4-(4-methoxybenzyl)piperazin-1-yl)-7-azaspiro[3.5]non-7-yl)benzamide], the IC50 in data set [7] is less than 10 nM; in data set [2], greater than 5000 nM; in data set [3] (values in nM) it was greater than 500 nM; in data set [4], less than 10 nM; in data set [5], less than 10 nM; in data set [6] it was 0.5 to 1 nM.
Regarding `COc1ccc(CN2CCN(C3CC4(CCN(c5cc(Oc6cnc7[nH]ccc7c6)c(C(=O)NS(=O)(=O)c6cc([N+](=O)[O-])c(NC[C@H]7CC[C@](C)(O)CC7)c7[nH]cnc67)cc5F)CC4)C3)[C@H](c3ccccc3C(C)C)C2)cc1` [compound 262, 2-((1H-pyrrolo[2,3-b]pyrid-5-yl)oxy)-5-fluoro-N-((7-((((1r,4r)-4-hydroxy-4-methylcyclohexyl)methyl)amino)-6-nitro-1H-benzo[d]imidazol-4-yl)sulfonyl)-4-(2-((R)-2-(2-isopropylphenyl)-4-(4-methoxybenzyl)piperazin-1-yl)-7-azaspiro[3.5]non-7-yl)benzamide], the IC50 in data set [1] (setting [8]) was greater than 20000 nM; in data set [7] it was less than 10 nM; in data set [3] (values given in μM), greater than 1000 nM; in data set [4], less than 10 nM; in data set [5] it was less than 10 nM; in data set [6], 0.5 to 1 nM.
Turning to `COc1ccc(CN2CCN(C3CC4(CCN(c5cc(Oc6cnc7[nH]ccc7c6)c(C(=O)NS(=O)(=O)c6cc([N+](=O)[O-])c(NCC7CCOCC7)c7[nH]cnc67)cc5F)CC4)C3)[C@H](c3ccccc3C(C)C)C2)cc1` [compound 263, (R)-2-((1H-pyrrolo[2,3-b]pyrid-5-yl)oxy)-5-fluoro-4-(2-(2-(2-isopropylphenyl)-4-(4-methoxybenzyl)piperazin-1-yl)-7-azaspiro[3.5]non-7-yl)-N-((6-nitro-7-(((tetrahydro-2H-pyran-4-yl)methyl)amino)-1H-benzo[d]imidazol-4-yl)sulfonyl)benzamide], the IC50 was greater than 20000 nM in data set [1] (setting [8]); less than 10 nM in data set [7]; 1300 nM in data set [3] (values given in μM); less than 10 nM in data set [4]; less than 10 nM in data set [5]; 0.5 to 1 nM in data set [6].
On to `COc1ccc(CN2CCN(C3CC4(CCN(c5cc(Oc6cnc7[nH]ccc7c6)c(C(=O)NS(=O)(=O)c6cc([N+](=O)[O-])c(NCC7(F)CCOCC7)c7[nH]cnc67)cn5)CC4)C3)[C@H](c3ccccc3C(C)C)C2)cc1` [compound 268, (R)-4-((1H-pyrrolo[2,3-b]pyrid-5-yl)oxy)-N-((7-(((4-fluorotetrahydro-2H-pyran-4-yl)methyl)amino)-6-nitro-1H-benzo[d]imidazol-4-yl)sulfonyl)-6-(2-(2-(2-isopropylphenyl)-4-(4-methoxybenzyl)piperazin-1-yl)-7-azaspiro[3.5]non-7-yl) nicotinamide], for which the IC50 in data set [1] (setting [8]) was greater than 20000 nM; in data set [7], less than 10 nM; in data set [3] (values in nM), greater than 500 nM; in data set [4], less than 10 nM; in data set [5] it was less than 10 nM; in data set [6], less than 0.5 nM.

The values are drawn from patent US20250034135A1, “ANTI-APOPTOTIC PROTEIN BCL-2 INHIBITOR, PHARMACEUTICAL COMPOSITION AND USES THEREOF” (HANGZHOU HEALZEN THERAPEUTICS CO., LTD., priority 2021, published 2025).
